# Laboratory results as given in ChEMBL document CHEMBL5331094, “Identification of 2,4,5-trisubstituted-2,4-dihydro-3H-1,2,4-triazol-3-one-based small molecules as selective BRD9 binders” (Eur J Med Chem, 2023).
# Experiments:
# [1] = molecular target: Bromodomain-containing protein 4 (Homo sapiens) (UniProt O60885); assay: Binding affinity of recombinant His-tagged BRD4-BD1 (unknown origin) to histone H4Ac (1 to 21 residues) K5/8/12/Ac-Biotin-OH assessed as residual binding at 10 uM incubated for 30 mins by alphascreen analysis relative to control
# [2] = molecular target: Bromodomain-containing protein 3 (Homo sapiens) (UniProt Q15059); assay: Binding affinity of recombinant His-tagged BRD3-BD1 (unknown origin) to histone H4Ac (1 to 21 residues) K5/8/12/Ac-Biotin-OH assessed as residual binding at 10 uM incubated for 30 mins by alphascreen analysis relative to control
# [3] = molecular target: CREB-binding protein (Homo sapiens) (UniProt Q92793); assay: Binding affinity of recombinant His-tagged CREBBP (unknown origin) to histone H4Ac (1 to 21 residues) K5/8/12/Ac-Biotin-OH assessed as residual binding at 10 uM incubated for 30 mins by alphascreen analysis relative to control
# [4] = Cytotoxicity against human erythrocytes assessed as cell viability measured after 24 hrs by MTT assay; format: toxicity, cell-based, Erythrocyte
# [5] = molecular target: Bromodomain adjacent to zinc finger domain protein 2B (Homo sapiens) (UniProt Q9UIF8); assay: Binding affinity of recombinant His-tagged BAZ2B (unknown origin) to histone H3 (1 to 21 residues) K9/14Ac-Biotin-OH assessed as residual binding at 10 uM incubated for 30 mins by alphascreen analysis relative to control
# [6] = molecular target: Bromodomain-containing protein 4 (Homo sapiens) (UniProt O60885); assay: Binding affinity of recombinant His-tagged BRD4-BD2 (unknown origin) to histone H4Ac (1 to 21 residues) K5/8/12/Ac-Biotin-OH assessed as residual binding at 10 uM incubated for 30 mins by alphascreen analysis relative to control
# MCF7 = assay: Cytotoxicity against human MCF7 cells assessed as cell viability measured after 24 hrs by MTT assay; format: functional, cell-based; conditions: MCF7, 24 h
# Caco-2 = assay: Cytotoxicity against human Caco-2 cells assessed as cell viability measured after 24 hrs by MTT assay; format: functional, cell-based; conditions: Caco-2, 24 h
# Jurkat = assay: Cytotoxicity against human Jurkat cells assessed as cell viability measured after 24 hrs by MTT assay; format: functional, cell-based
# A-375 = assay: Cytotoxicity against human A-375 cells assessed as cell viability measured after 24 hrs by MTT assay; format: functional, cell-based; conditions: A-375, 24 h
# [7] = molecular target: Bromodomain-containing protein 2 (Homo sapiens) (UniProt P25440); assay: Binding affinity of recombinant His-tagged BRD2-BD1 (unknown origin) to histone H4Ac (1 to 21 residues) K5/8/12/Ac-Biotin-OH assessed as residual binding at 10 uM incubated for 30 mins by alphascreen analysis relative to control
# [8] = molecular target: Bromodomain-containing protein 2 (Homo sapiens) (UniProt P25440); assay: Binding affinity of recombinant His-tagged BRD2-BD2 (unknown origin) to histone H4Ac (1 to 21 residues) K5/8/12/Ac-Biotin-OH assessed as residual binding at 10 uM incubated for 30 mins by alphascreen analysis relative to control
# [9] = molecular target: T1, Bromodomain-containing protein 9 (Homo sapiens) (UniProt Q9H8M2); assay: Binding affinity of GST-tagged BRD9 domain (unknown origin) to histone H4Ac (1 to 21 residues) assessed as residual binding at 10 uM by alphascreen analysis relative to control
# T1 sequence (whole entry): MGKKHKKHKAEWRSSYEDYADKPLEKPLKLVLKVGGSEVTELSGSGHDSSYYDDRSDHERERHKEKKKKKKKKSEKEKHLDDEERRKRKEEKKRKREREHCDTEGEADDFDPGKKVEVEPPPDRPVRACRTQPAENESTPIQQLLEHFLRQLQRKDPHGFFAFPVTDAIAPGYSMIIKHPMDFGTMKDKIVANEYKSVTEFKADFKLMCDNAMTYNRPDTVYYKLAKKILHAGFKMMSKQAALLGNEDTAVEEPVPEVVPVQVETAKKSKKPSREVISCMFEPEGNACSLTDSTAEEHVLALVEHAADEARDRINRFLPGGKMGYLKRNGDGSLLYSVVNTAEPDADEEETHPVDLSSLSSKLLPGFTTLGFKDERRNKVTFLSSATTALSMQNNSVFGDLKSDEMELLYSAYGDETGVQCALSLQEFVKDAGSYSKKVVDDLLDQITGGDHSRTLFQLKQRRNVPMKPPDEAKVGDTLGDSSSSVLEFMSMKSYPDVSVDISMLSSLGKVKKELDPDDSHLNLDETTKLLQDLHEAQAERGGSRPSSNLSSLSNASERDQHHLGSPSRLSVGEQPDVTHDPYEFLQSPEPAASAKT
# [10] = molecular target: Bromodomain-containing protein 3 (Homo sapiens) (UniProt Q15059); assay: Binding affinity of recombinant His-tagged BRD3-BD2 (unknown origin) to histone H4Ac (1 to 21 residues) K5/8/12/Ac-Biotin-OH assessed as residual binding at 10 uM incubated for 30 mins by alphascreen analysis relative to control
# HaCaT = assay: Cytotoxicity against human HaCaT cells assessed as cell viability measured after 24 hrs by MTT assay; format: functional, cell-based
# [11] = molecular target: Bromodomain testis-specific protein (Homo sapiens) (UniProt Q58F21); assay: Binding affinity of recombinant His-tagged BRDT-BD1 (unknown origin) to histone H4Ac (1 to 21 residues) K5/8/12/Ac-Biotin-OH assessed as residual binding at 10 uM incubated for 30 mins by alphascreen analysis relative to control
# [12] = molecular target: T2, Bromodomain-containing protein 9 (Homo sapiens, UniProt Q9H8M2); assay: Inhibition of BRD9 (unknown origin) by alpha screen analysis
# T2 sequence (Q9H8M2 whole entry): T1 sequence (whole entry)
# Chain of Bromodomain-containing protein 2 (Homo sapiens) (P25440 whole entry, looked up, the tested form may be a part): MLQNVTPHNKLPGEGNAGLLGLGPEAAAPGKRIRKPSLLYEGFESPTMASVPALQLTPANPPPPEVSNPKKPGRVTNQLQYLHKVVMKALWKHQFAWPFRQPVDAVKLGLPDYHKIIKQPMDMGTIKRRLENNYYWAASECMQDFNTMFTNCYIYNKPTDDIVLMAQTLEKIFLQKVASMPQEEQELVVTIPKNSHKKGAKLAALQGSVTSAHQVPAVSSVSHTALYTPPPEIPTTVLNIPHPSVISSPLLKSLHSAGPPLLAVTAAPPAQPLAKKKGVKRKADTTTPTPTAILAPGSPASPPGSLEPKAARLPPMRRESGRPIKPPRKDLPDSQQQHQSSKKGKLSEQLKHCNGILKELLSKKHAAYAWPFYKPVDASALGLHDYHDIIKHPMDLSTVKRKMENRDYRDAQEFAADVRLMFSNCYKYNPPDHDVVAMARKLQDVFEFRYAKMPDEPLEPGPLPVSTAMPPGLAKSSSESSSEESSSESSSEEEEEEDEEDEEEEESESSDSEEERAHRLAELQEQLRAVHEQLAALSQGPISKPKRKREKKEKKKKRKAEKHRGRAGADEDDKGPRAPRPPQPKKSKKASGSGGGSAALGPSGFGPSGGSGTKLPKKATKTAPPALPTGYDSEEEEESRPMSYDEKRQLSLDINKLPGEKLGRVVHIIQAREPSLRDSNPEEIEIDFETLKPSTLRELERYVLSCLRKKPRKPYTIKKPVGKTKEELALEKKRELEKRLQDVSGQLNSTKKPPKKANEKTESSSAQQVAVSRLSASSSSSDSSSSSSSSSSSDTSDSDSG
# Chain of Bromodomain adjacent to zinc finger domain protein 2B (Homo sapiens) (Q9UIF8 whole entry, the tested form may be a part): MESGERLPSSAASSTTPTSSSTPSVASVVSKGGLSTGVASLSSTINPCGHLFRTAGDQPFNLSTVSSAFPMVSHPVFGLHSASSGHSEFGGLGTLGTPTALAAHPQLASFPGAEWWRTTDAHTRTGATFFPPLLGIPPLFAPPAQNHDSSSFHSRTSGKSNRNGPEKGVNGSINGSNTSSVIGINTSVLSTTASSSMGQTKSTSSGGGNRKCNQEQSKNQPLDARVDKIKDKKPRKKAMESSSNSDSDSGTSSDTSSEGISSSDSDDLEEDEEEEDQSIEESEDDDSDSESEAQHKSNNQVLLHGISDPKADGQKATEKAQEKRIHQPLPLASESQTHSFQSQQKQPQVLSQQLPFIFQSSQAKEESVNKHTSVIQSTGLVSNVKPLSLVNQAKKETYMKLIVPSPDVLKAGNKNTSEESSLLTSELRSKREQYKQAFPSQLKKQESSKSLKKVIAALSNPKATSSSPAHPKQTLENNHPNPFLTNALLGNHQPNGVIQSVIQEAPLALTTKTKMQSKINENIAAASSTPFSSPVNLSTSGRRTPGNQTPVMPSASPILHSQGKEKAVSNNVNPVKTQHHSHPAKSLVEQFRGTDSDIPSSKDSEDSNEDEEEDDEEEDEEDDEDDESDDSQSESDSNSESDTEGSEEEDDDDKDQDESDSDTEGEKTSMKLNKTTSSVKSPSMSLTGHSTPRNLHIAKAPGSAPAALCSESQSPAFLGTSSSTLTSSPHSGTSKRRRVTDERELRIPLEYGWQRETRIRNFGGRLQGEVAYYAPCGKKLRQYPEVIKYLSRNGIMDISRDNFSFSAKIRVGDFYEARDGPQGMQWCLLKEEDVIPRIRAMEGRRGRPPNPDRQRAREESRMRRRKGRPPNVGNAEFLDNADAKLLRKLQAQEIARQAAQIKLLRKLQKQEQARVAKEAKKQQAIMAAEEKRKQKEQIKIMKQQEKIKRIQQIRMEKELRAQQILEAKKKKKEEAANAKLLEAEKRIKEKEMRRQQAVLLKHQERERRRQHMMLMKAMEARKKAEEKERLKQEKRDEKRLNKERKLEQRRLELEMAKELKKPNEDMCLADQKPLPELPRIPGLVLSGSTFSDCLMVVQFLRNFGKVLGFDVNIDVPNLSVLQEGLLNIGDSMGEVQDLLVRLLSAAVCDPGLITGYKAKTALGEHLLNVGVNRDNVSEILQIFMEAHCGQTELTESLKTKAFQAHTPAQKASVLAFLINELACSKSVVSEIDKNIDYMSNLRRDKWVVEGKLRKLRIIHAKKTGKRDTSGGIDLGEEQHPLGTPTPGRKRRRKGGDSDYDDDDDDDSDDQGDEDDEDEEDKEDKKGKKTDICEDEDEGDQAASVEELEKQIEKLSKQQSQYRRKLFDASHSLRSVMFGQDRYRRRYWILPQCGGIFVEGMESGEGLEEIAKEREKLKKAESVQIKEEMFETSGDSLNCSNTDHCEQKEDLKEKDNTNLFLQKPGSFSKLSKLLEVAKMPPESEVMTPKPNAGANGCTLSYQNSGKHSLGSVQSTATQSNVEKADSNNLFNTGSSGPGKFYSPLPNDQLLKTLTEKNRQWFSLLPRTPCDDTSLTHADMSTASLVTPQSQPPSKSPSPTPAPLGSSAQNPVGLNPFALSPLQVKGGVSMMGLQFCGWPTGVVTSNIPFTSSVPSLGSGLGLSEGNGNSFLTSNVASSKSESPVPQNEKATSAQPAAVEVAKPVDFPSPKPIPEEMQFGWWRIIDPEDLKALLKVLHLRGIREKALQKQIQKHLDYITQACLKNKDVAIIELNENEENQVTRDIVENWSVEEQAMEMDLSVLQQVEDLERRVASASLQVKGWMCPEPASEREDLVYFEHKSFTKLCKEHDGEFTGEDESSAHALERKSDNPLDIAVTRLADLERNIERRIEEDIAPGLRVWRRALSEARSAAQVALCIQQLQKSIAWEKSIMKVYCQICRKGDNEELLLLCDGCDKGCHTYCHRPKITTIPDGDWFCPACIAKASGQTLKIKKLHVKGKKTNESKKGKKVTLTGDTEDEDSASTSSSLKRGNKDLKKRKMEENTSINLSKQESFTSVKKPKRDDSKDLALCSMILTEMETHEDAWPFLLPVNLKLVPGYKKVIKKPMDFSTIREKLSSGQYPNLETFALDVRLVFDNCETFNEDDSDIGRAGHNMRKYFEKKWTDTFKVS
# Chain of Bromodomain-containing protein 3 (Homo sapiens) (Q15059 2-726 limits assumed): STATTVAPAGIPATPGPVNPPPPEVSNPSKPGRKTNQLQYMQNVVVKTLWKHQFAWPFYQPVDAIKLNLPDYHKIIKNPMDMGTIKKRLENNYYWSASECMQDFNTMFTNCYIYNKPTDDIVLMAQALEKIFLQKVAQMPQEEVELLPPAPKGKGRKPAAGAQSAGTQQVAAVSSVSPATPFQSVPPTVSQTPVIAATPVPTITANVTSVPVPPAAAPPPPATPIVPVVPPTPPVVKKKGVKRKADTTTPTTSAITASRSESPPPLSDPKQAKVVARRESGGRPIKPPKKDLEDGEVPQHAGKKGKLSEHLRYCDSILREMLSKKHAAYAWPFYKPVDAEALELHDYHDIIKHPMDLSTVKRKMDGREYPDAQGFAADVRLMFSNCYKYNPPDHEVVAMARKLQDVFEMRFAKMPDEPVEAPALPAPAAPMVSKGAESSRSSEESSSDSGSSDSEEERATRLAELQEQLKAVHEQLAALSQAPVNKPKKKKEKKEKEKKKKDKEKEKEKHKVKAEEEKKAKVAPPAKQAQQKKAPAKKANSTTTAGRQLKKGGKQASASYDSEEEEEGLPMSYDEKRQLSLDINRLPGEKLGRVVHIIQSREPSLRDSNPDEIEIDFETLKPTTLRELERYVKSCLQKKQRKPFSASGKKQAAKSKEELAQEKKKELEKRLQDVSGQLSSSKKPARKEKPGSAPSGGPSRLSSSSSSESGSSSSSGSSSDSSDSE
compound,measurement,setting,value
CCn1nc(C)n(-c2ccc(OC)c(OC)c2)c1=O,Activity,[1],99.2%
same,Activity,[2],97.8%
same,Activity,[3],> 100%
same,IC50 at 24 h,[4],> 500 µM
same,Activity,[5],> 100%
same,Activity,[6],> 100%
same,IC50,MCF7,360 µM
same,IC50,Caco-2,300 µM
same,IC50,Jurkat,315 µM
same,IC50,A-375,400 µM
same,Activity,[7],> 100%
same,Activity,[8],> 100%
same,Activity,[9],50.8%
same,Activity,[10],> 100%
same,IC50,HaCaT,> 500 µM
same,Activity,[11],97.9%
same,IC50,[12],7.62 µM
CCc1nn(CC)c(=O)n1-c1ccc2c(c1)OCO2,Activity,[9],91.2%
Cc1n[nH]c(=O)n1-c1ccc(F)c(C(F)(F)F)c1,Activity,[9],97.8%
Cc1nn(C)c(=O)n1-c1ccc2c(c1)OCO2,Activity,[1],> 100%
same,Activity,[2],97.3%
same,Activity,[3],> 100%
same,IC50 at 24 h,[4],> 500 µM
same,Activity,[5],92.8%
same,Activity,[6],99.3%
same,IC50,MCF7,400 µM
same,IC50,Caco-2,370 µM
same,IC50,Jurkat,290 µM
same,IC50,A-375,400 µM
same,Activity,[7],> 100%
same,Activity,[8],94.4%
same,Activity,[9],58.8%
same,Activity,[10],94.9%
same,IC50,HaCaT,> 500 µM
same,Activity,[11],92.5%
same,IC50,[12],11.1 µM
Cc1cccc(-n2c(C)nn(C)c2=O)c1,Activity,[9],86.7%
COc1ccc(-n2c(C)nn(C)c2=O)cc1OC,Activity,[1],> 100%
same,Activity,[2],> 100%
same,Activity,[3],96.3%
same,IC50 at 24 h,[4],> 500 µM
same,Activity,[5],> 100%
same,Activity,[6],94.7%
same,IC50,MCF7,> 500 µM
same,IC50,Caco-2,300 µM
same,IC50,Jurkat,110 µM
same,IC50,A-375,450 µM
same,Activity,[7],96.5%
same,Activity,[8],> 100%
same,Activity,[9],28.1%
same,Activity,[10],> 100%
same,IC50,HaCaT,> 500 µM
same,Activity,[11],> 100%
same,IC50,[12],0.35 µM
CCc1nn(C)c(=O)n1-c1cccc(C(F)(F)F)c1,Activity,[9],76.5%
Cc1cc(-n2c(C)n[nH]c2=O)ccc1F,Activity,[9],> 100%
CCc1nn(C)c(=O)n1C1CCCCC1,Activity,[9],64.3%
CCc1nn(C)c(=O)n1-c1ccc(F)c(Cl)c1,Activity,[1],99.2%
same,Activity,[2],> 100%
same,Activity,[3],> 100%
same,IC50 at 24 h,[4],> 500 µM
same,Activity,[5],> 100%
same,Activity,[6],> 100%
same,IC50,MCF7,> 500 µM
same,IC50,Caco-2,> 500 µM
same,IC50,Jurkat,225 µM
same,IC50,A-375,500 µM
same,Activity,[7],> 100%
same,Activity,[8],> 100%
same,Activity,[9],24.3%
same,Activity,[10],98.3%
same,IC50,HaCaT,> 500 µM
same,Activity,[11],98.2%
same,IC50,[12],1.86 µM
CCc1n[nH]c(=O)n1-c1ccc(OC)c(OC)c1,Activity,[9],96.9%
Cc1ccc(-n2c(C)n[nH]c2=O)cc1,Activity,[9],> 100%
CCc1n[nH]c(=O)n1-c1ccc(Cl)c(F)c1,Activity,[9],91.8%
CCc1nn(CC)c(=O)n1-c1cccc(C(F)(F)F)c1,Activity,[1],97.7%
same,Activity,[2],> 100%
same,Activity,[3],> 100%
same,IC50 at 24 h,[4],> 500 µM
same,Activity,[5],> 100%
same,Activity,[6],> 100%
same,IC50,MCF7,490 µM
same,IC50,Caco-2,> 500 µM
same,IC50,Jurkat,270 µM
same,IC50,A-375,> 500 µM
same,Activity,[7],99%
same,Activity,[8],> 100%
same,Activity,[9],39.4%
same,Activity,[10],97.4%
same,IC50,HaCaT,> 500 µM
same,Activity,[11],98.3%
same,IC50,[12],2.49 µM
Cc1nnc(O)n1-c1ccc(C(C)(C)C)cc1,Activity,[9],> 100%
CCc1n[nH]c(=O)n1-c1ccc(F)c(C)c1,Activity,[9],94.9%
CCc1n[nH]c(=O)n1-c1cccc(C(F)(F)F)c1,Activity,[9],96.1%
Cc1nn(C)c(=O)n1-c1ccc(C(C)(C)C)cc1,Activity,[9],95.7%
CCc1nn(C)c(=O)n1-c1ccc(OC)c(OC)c1,Activity,[1],> 100%
same,Activity,[2],97.3%
same,Activity,[3],> 100%
same,IC50 at 24 h,[4],> 500 µM
same,Activity,[5],> 100%
same,Activity,[6],89.4%
same,IC50,MCF7,> 500 µM
same,IC50,Caco-2,> 500 µM
same,IC50,Jurkat,420 µM
same,IC50,A-375,480 µM
same,Activity,[7],> 100%
same,Activity,[8],96.7%
same,Activity,[9],38.1%
same,Activity,[10],97.7%
same,IC50,HaCaT,> 500 µM
same,Activity,[11],95.6%
same,IC50,[12],4.13 µM
Cc1nn(C)c(=O)n1C1CCCCC1,Activity,[9],77.9%
CCn1nc(C)n(-c2ccc3c(c2)OCO3)c1=O,Activity,[1],96.2%
same,Activity,[2],74.8%
same,Activity,[3],> 100%
same,IC50 at 24 h,[4],> 500 µM
same,Activity,[5],97.5%
same,Activity,[6],99.2%
same,IC50,MCF7,> 500 µM
same,IC50,Caco-2,> 500 µM
same,IC50,Jurkat,> 500 µM
same,IC50,A-375,> 500 µM
same,Activity,[7],> 100%
same,Activity,[8],> 100%
same,Activity,[9],35.6%
same,Activity,[10],99.9%
same,IC50,HaCaT,> 500 µM
same,Activity,[11],> 100%
same,IC50,[12],5.44 µM
Cc1cccc(-n2c(C)n[nH]c2=O)c1,Activity,[9],> 100%
CCc1nn(CC)c(=O)n1-c1ccc(F)c(Cl)c1,Activity,[9],86.6%
CCc1nn(CC)c(=O)n1-c1ccc(OC)c(OC)c1,Activity,[9],> 100%
CCc1n[nH]c(=O)n1-c1ccc2c(c1)OCO2,Activity,[9],84.6%
Cc1nn(C)c(=O)n1-c1ccc(F)c(C(F)(F)F)c1,Activity,[9],85.3%
CCn1nc(C)n(-c2ccc(F)c(Cl)c2)c1=O,Activity,[1],99%
same,Activity,[2],> 100%
same,Activity,[3],> 100%
same,IC50 at 24 h,[4],> 500 µM
same,Activity,[5],> 100%
same,Activity,[6],> 100%
same,IC50,MCF7,> 500 µM
same,IC50,Caco-2,> 500 µM
same,IC50,Jurkat,> 500 µM
same,IC50,A-375,450 µM
same,Activity,[7],98.2%
same,Activity,[8],> 100%
same,Activity,[9],41.2%
same,Activity,[10],93.3%
same,IC50,HaCaT,> 500 µM
same,Activity,[11],98.3%
same,IC50,[12],4.01 µM
CCc1nn(C)c(=O)n1-c1ccc(C)c(C)c1,Activity,[9],85.1%
CCc1ccc(-n2c(CC)n[nH]c2=O)cc1,Activity,[9],97.1%
CCc1n[nH]c(=O)n1-c1ccc(C)c(C)c1,Activity,[9],97.2%
CCc1n[nH]c(=O)n1-c1ccc(C)c(Cl)c1,Activity,[9],97.5%
COc1ccc(-n2c(C)nnc2O)cc1OC,Activity,[9],73.6%
